Consider 1 compound from PMC3062473 (ChemMedChem, 2010).

The target of one data set is T1, Caspase 9 (Homo sapiens, UniProt P55211).
T1 sequence (P55211 1-315 limits assumed): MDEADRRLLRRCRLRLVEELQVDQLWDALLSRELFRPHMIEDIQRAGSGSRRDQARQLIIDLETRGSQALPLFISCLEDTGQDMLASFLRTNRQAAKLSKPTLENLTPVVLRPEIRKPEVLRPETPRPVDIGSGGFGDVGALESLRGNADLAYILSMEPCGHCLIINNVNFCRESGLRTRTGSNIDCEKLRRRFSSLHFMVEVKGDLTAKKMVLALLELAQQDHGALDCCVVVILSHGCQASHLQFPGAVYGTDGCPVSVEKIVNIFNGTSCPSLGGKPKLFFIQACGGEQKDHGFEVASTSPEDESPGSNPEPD
T1 sequence (P55211 331-416 limits assumed): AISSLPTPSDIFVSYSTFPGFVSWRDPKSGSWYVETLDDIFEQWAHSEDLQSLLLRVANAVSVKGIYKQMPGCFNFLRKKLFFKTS
Nature of the data set: Reaction Biology caspase panel. Format: biochemical. The settings on record: read-out: Caspase 9 IC50; (Z-LEHD)2-R110 substrate; three separate experiments.

The next data set addresses T2, Caspase 7 (Homo sapiens, UniProt P55210).
T2 sequence (P55210 24-198 limits assumed): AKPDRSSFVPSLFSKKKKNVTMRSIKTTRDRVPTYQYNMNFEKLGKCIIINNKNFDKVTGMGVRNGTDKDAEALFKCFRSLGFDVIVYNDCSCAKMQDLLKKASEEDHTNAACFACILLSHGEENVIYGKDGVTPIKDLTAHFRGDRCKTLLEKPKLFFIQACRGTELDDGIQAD
T2 sequence (P55210 207-303 limits assumed): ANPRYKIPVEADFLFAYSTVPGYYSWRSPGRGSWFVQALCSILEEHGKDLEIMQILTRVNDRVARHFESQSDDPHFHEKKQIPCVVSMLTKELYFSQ
To be noted: cited from earlier work.

Data set [1] addresses T3, Caspase 4 (Homo sapiens, UniProt P49662).
T3 sequence (P49662 81-270 limits assumed): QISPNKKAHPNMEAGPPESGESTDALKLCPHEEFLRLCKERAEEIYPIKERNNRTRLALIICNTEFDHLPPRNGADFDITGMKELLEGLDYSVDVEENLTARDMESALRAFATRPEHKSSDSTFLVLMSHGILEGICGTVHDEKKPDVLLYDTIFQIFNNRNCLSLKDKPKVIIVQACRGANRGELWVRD
T3 sequence (P49662 290-377 limits assumed): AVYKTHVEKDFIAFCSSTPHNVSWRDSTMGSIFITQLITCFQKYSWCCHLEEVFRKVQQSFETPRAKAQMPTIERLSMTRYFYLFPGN
Nature of the data set: Reaction Biology caspase panel. Format: biochemical. To be noted: read-out: Caspase 4 IC50; (Z-LEHD)2-R110 substrate; three separate experiments.

The target in the next data set is T4, caspase 1 (Homo sapiens, UniProt P29466).
T4 sequence (P29466 120-297 limits assumed): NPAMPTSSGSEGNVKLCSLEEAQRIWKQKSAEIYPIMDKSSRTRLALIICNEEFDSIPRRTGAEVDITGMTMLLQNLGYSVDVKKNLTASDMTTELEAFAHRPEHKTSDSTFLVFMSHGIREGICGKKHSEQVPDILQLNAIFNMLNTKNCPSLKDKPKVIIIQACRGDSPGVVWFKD
T4 sequence (P29466 317-404 limits assumed): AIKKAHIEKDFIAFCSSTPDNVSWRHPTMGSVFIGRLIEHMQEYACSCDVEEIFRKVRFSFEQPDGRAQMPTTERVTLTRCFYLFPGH
To be noted: read-out: Ki caspase 1; cited from earlier work.

For the next data set, the system named is granzyme B. The settings on record: cited from earlier work.
Data set [2] can be described thus: Plasma protein binding, equilibrium dialysis in 100% plasma. Format: in vitro ADME, human. To be noted: human plasma, 100% plasma, equilibrium dialysis.
Data set [3] deals with T5, Caspase 6 (Homo sapiens, UniProt P55212).
T5 sequence (P55212 24-179 limits assumed): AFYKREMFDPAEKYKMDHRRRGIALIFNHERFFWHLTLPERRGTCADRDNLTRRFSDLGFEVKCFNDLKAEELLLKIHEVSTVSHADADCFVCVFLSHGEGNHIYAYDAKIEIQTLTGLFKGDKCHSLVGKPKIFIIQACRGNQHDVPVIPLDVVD
T5 sequence (P55212 194-293 limits assumed): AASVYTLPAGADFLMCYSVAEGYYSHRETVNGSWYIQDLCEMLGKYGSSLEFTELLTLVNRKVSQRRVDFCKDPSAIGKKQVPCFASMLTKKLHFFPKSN
To be noted: read-out: Ki caspase 6; cited from earlier work.

Data set [4] deals with T3, Caspase 4. The settings on record: read-out: Ki caspase 4; cited from earlier work.
The target of data set [5] is T5, Caspase 6. Nature of the data set: Reaction Biology caspase panel. Format: biochemical. The settings on record: read-out: Caspase 6 IC50; (Z-DEVD)2-R110 substrate; three separate experiments.
In a further data set the target is T6, Caspase 14 (Homo sapiens, UniProt P31944).
T6 sequence (P31944 6-146 limits assumed): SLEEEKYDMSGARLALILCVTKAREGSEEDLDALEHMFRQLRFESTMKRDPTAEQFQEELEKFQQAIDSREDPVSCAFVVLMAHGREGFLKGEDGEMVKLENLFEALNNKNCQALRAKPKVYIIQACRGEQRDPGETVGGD
T6 sequence (P31944 153-242 limits assumed): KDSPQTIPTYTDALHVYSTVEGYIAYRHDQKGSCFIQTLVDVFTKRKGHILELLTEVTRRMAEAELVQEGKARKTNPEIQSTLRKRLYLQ
Nature of the data set: Reaction Biology caspase panel. Format: biochemical. To be noted: read-out: Caspase 14 IC50; (Z-LEHD)2-R110 substrate; three separate experiments.

As to `CC(C)(C)[C@H](NC(=O)c1ccc(N)c(Cl)c1)C(=O)N1CCC[C@H]1C(=O)N[C@H](C=O)CC(=O)O` [Compound 2b, reference compound], the IC50 on Caspase 9 was 5.07 nM; at Caspase 4 [1] it was 14.5 nM; on Caspase 6 [5], above 10000 nM; on Caspase 14 it was 58.5 nM. Besides, the “activity against caspase 7” value on Caspase 7 is “little activity”. Moreover, the Ki was below 1 nM on caspase 1, 560 nM at Caspase 6 [3] and below 1 nM on Caspase 4 [4]. The “activity against granzyme B” value with granzyme B is recorded as “little activity”. Further, the “Protein Binding fraction unbound” value in [2] is reported as 0.420.
